Measurements from US20220330549A1, “USE OF N-BENZYLBENZAMIDE-BASED COMPOUND AS HERBICIDE” (Northwest A&F University, priority 2020, published 2022).

What was measured:
Type in all cases: in vivo
[1] = test system: Broadleaf weed; assay: Post-emergence herbicidal activity test in a paddy field; design: key: level scale; higher level = more weed left vs blank control; settings: 150 g a.i./ha (penoxsulam control 250 g(a.i.)/h)
Procedure, shortened: (§1)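 Efficacy was visually estimated 15 and 30 days after spraying, grading weed coverage relative to an untreated neighbouring plot (level 2 = 0 to 2.5%, level 9 = 67.6 to 100%). Treatments were 150 g(a.i.)/ha from 10% emulsifiable concentrates applied at the 4-5 leaf rice stage, four repeats of 50 m^2 each.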

[2] = test system: Cyperaceae; assay: as above; design: key: level scale; higher level = more weed left vs blank control; settings: 150 g a.i./ha (penoxsulam control 250 g(a.i.)/h)
Procedure, shortened: as §1

[3] = test system: Gramineae; assay: as above; design: key: level scale; higher level = more weed left vs blank control; settings: 150 g a.i./ha (penoxsulam control 250 g(a.i.)/h)
Procedure, shortened: as §1

[4] = test system: Humulus scandens; assay: Herbicidal activity test for indoor pre-emergence soil treatment; settings: 150 g a.i./ha, visual inspection 21 days after treatment
Procedure, shortened: (§2)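 Pre-emergence test following NY/T 1155.3-2006: weed seeds were sown in moistened neutral sandy loam (≤2% organic matter) and covered with 0.5–2.0 cm of soil. After 24 h, the soil was sprayed with a 10% EC diluted in water at 150 g(a.i.)/ha. Damage was scored visually on a 1–9 scale at 21 days.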

[5] = test system: Barnyard grass; assay: Field test for weed control in a corn field; settings: 150 g a.i./ha, 30 days after treatment
Procedure, shortened: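 Herbicidal activity against barnyard grass was assessed in corn field plots of 20 m^2, with four replicates per treatment. Compounds were applied as water-diluted 10% emulsifiable concentrates at 150 g(a.i.)/ha at the 2-5 leaf corn stage, with 25% mesotrione oil dispersion as the reference agent. Damage was scored on a 1-9 scale against untreated blank plots.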

[6] = test system: Digitaria sanguinalis; assay: Field test for weed control in a corn field; settings: 150 g a.i./ha, after treatment
Procedure, shortened: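 Field trial in a corn field following GB/T 17980.42-2000. Test compounds were formulated as 10% emulsifiable concentrates, diluted in water and sprayed post-emergence at 150 g(a.i.)/ha when corn had 2 to 5 leaves, with 4 replicates on 20 m^2 plots. Control of Digitaria sanguinalis was scored on a 1-9 scale based on weed damage relative to the untreated blank area.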

[7] = test system: Amaranthus retroflexus; assay: Field test for weed control in a corn field; settings: 150 g a.i./ha, 30 days after treatment
Procedure, shortened: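 Post-emergence control of Amaranthus retroflexus was assessed in corn plots using the GB/T 17980.42-2000 method. Emulsifiable concentrates (10%) in water were applied by spraying at the 2- to 5-leaf crop stage on 20 m^2 plots, four replicates each, alongside a mesotrione 25% oil dispersion reference. Herbicidal activity was scored on 1-9 levels by weed amount relative to blank control areas.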

[8] = test system: Portulaca oleracea; assay: Field test for weed control in a corn field; settings: 150 g a.i./ha, after treatment
Procedure, shortened: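 Post-emergence weed control was evaluated in a corn field by the GB/T 17980.42-2000 method. Emulsifiable concentrates (10%) in water were applied as sprays at 150 g(a.i.)/ha at the 2-5 leaf corn stage, in four replicate 20 m^2 plots. A 25% mesotrione oil dispersion served as control agent. Effects were graded 1-9 relative to weed remaining in blank control areas.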

[9] = test system: green bristlegrass; assay: Field test for weed control in a corn field; settings: 150 g a.i./ha, after treatment
Procedure, shortened: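 Herbicidal activity against green bristlegrass was assessed in corn field plots of 20 m^2 per GB/T 17980.42-2000. Test agents, formulated as 10% emulsifiable concentrates, were applied in water at 150 g(a.i.)/ha at the corn 2 leaves to 5 leaves stage, repeated 4 times. A 25% mesotrione oil dispersion served as the control agent, and weed damage was rated on levels 1-9.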

[10] = test system: Convolvulus arvensis; assay: Field test for weed control in a corn field; settings: 150 g a.i./ha, after treatment
Procedure, shortened: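 Post-emergence herbicidal activity on Convolvulus arvensis was scored in a corn field on a 1-9 scale, based on symptoms and damage severity. Each level corresponds to the weed remaining as a percentage of the blank control area. Sprays of 10% emulsifiable concentrate at 150 g(a.i.)/ha went on at the corn 2–5 leaf stage, with four replicates of 20 m^2 per treatment.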

[11] = test system: nutgrass flatsedge; assay: Field test for weed control in a corn field; settings: 150 g a.i./ha, after treatment
Procedure, shortened: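 Herbicidal effect on nutgrass flatsedge was measured in a field planted with corn, using the GB/T 17980.42-2000 method. Emulsifiable concentrates (10%) in water were sprayed at 150 g(a.i.)/ha during the 2-leaf to 5-leaf corn stage, on 20 m^2 plots repeated 4 times. 25% mesotrione oil dispersion was the control agent. Activity was scored from 1 to 9 by weed remaining relative to blank control plots.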

[12] = test system: goosegrass; assay: Field test for weed control in a corn field; settings: 150 g a.i./ha, after treatment
Procedure, shortened: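 In this field trial in corn, run per GB/T 17980.42-2000, test agents prepared as 10% emulsifiable concentrates were applied in water as sprays at 150 g(a.i.)/ha at the 2- to 5-leaf corn stage. Each treatment covered 20 m^2 and was repeated 4 times. Goosegrass control was scored 1-9 relative to weed remaining in blank control areas.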

[13] = test system: Solanum nigrum; assay: Field test for weed control in a corn field; settings: 150 g a.i./ha, 30 days after treatment
Procedure, shortened: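 In a corn field trial based on GB/T 17980.42-2000, 10% emulsifiable concentrates diluted in water were sprayed at 150 g(a.i.)/ha at the 2 to 5 leaf stage of corn. Each treatment used 20 m^2 plots and was repeated 4 times, with 25% mesotrione oil dispersion as the reference agent. Solanum nigrum damage was scored on a 1-9 scale against blank control plots.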

[14] = test system: Acalypha australis; assay: Field test for weed control in a corn field; settings: 150 g a.i./ha, after treatment
Procedure, shortened: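 Herbicidal activity against weeds was assessed in corn plots by the GB/T 17980.42-2000 method. Corn at the 2–5 leaf stage received water sprays of 10% emulsifiable concentrates at 150 g(a.i.)/ha, four repeats per treatment over 20 m^2. A 25% mesotrione oil dispersion was the reference. Damage symptoms and severity were rated on levels 1-9 relative to weeds in the blank control area.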

[15] = test system: Chenopodium album; assay: Field test for weed control in a corn field; settings: 150 g a.i./ha, after treatment
Procedure, shortened: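 Field weed-control testing in corn, run per GB/T 17980.42-2000, scored Chenopodium album on a 1-9 level scale, where each level matches a percentage range of weed remaining relative to the blank control area. Sprays of 10% emulsifiable concentrates in water delivered 150 g(a.i.)/ha at the corn 2-leaf to 5-leaf stage on 20 m^2 plots, four replicates each. Mesotrione 25% oil dispersion served as reference.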

[16] = test system: Barnyard grass; assay: Herbicidal activity test for indoor post-emergence spraying on stems and leaves; design: key: grade level by weed remaining vs blank control, e.g. 5 = 10.1-15%; settings: 150 g a.i./ha, visual inspection 21 days after treatment
Procedure, shortened: (§3)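 Greenhouse-grown weeds, post-emergence foliar spray (NY/T 1155.4-2006 method); visual scoring at 21 d post-treatment as levels vs. untreated blank control (e.g., level 5 = 10.1–15%, level 8 = 35.1–67.5% of control weed).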

[17] = test system: Digitaria sanguinalis; assay: as above; design: key: grade level by weed remaining vs blank control, e.g. 5 = 10.1-15%; settings: 150 g a.i./ha, visual inspection 21 days after treatment
Procedure, shortened: as §3

[18] = test system: Amaranthus retroflexus; assay: as above; design: key: grade level by weed remaining vs blank control, e.g. 5 = 10.1-15%; settings: 150 g a.i./ha, visual inspection 21 days after treatment
Procedure, shortened: as §3

[19] = test system: Humulus scandens; assay: as above; design: key: grade level by weed remaining vs blank control, e.g. 5 = 10.1-15%; settings: 150 g a.i./ha, visual inspection 21 days after treatment
Procedure, shortened: as §3

[20] = test system: green bristlegrass; assay: as above; design: key: grade level by weed remaining vs blank control, e.g. 5 = 10.1-15%; settings: 150 g a.i./ha, visual inspection 21 days after treatment
Procedure, shortened: as §3

[21] = test system: Piemarker; assay: as above; design: key: grade level by weed remaining vs blank control, e.g. 5 = 10.1-15%; settings: 150 g a.i./ha, visual inspection 21 days after treatment
Procedure, shortened: as §3

[22] = test system: Digitaria sanguinalis; assay: Herbicidal activity test for indoor pre-emergence soil treatment; design: key: 1-9 levels; higher = more weed remaining vs blank control; settings: 150 g a.i./ha, visual inspection 21 days after treatment
Procedure, shortened: as §2

[23] = test system: Amaranthus retroflexus; assay: as above; design: key: 1-9 levels; higher = more weed remaining vs blank control; settings: 150 g a.i./ha, visual inspection 21 days after treatment
Procedure, shortened: as §2

[24] = test system: Barnyard grass; assay: as above; design: key: level 1-9; higher = more weed remaining vs blank control; settings: 150 g a.i./ha, visual inspection 21 days after treatment
Procedure, shortened: as §2

[25] = test system: green bristlegrass; assay: as above; design: key: level 1-9; higher = more weed remaining vs blank control; settings: 150 g a.i./ha, visual inspection 21 days after treatment
Procedure, shortened: as §2

[26] = test system: Piemarker; assay: as above; design: key: level 1-9; higher = more weed remaining vs blank control; settings: 150 g a.i./ha, visual inspection 21 days after treatment
Procedure, shortened: as §2

COc1ccc(OC)c(C(=O)NCc2ccc(F)cc2)c1 [Compound A23]
Herbicidal activity 15 days after treatment Broadleaf weed [1]: 1 | Herbicidal activity 30 days after treatment Broadleaf weed [1]: 1 | Herbicidal activity 15 days after treatment Cyperaceae [2]: 1 | Herbicidal activity 30 days after treatment Cyperaceae [2]: 1 | Herbicidal activity 15 days after treatment Gramineae [3]: 1 | Herbicidal activity 30 days after treatment Gramineae [3]: 1 | Herbicidal Activity Humulus scandens [4]: 4 (equivalent to 5.1 to 10% of the weed in the blank control area) | Post-emergence weed control effect, Barnyard grass [5]: 2 (equivalent to 0 to 2.5% of the weed in the blank control area) | Post-emergence weed control effect, Digitaria sanguinalis [6]: 2 (equivalent to 0 to 2.5% of the weed in the blank control area) | Post-emergence weed control effect, Amaranthus retroflexus [7]: 1 | Post-emergence weed control effect, Portulaca oleracea [8]: 1 | Post-emergence weed control effect, Green bristlegrass [9]: 1 | Post-emergence weed control effect, Convolvulus arvensis [10]: 1 | Post-emergence weed control effect, Nutgrass flatsedge [11]: 3 (equivalent to 2.6 to 5% of the weed in the blank control area) | Post-emergence weed control effect, Goose grass [12]: 2 (equivalent to 0 to 2.5% of the weed in the blank control area) | Post-emergence weed control effect, Solanum nigrum [13]: 2 (equivalent to 0 to 2.5% of the weed in the blank control area) | Post-emergence weed control effect, Acalypha australis [14]: 2 (equivalent to 0 to 2.5% of the weed in the blank control area) | Post-emergence weed control effect, Chenopodium album [15]: 1 | Herbicidal Activity Barnyard grass [16]: 1 | Herbicidal Activity Digitaria sanguinalis [17]: 1 | Herbicidal Activity Amaranthus retroflexus [18]: 1 | Herbicidal Activity Humulus scandens [19]: 1 | Herbicidal Activity Green bristlegrass [20]: 1 | Herbicidal Activity Piemarker [21]: 1 | Herbicidal Activity Digitaria sanguinalis [22]: 1 | Herbicidal Activity Amaranthus retroflexus [23]: 2 (equivalent to 0 to 2.5% of the weed in the blank control area) | Herbicidal Activity Barnyard grass [24]: 1 | Herbicidal Activity Green bristlegrass [25]: 1 | Herbicidal Activity Piemarker [26]: 2 (equivalent to 0 to 2.5% of the weed in the blank control area)

COc1ccc(OC)c(C(=O)NCc2cc(F)cc(F)c2)c1 [Compound A24]
Herbicidal activity 15 days after treatment Broadleaf weed [1]: 1 | Herbicidal activity 30 days after treatment Broadleaf weed [1]: 1 | Herbicidal activity 15 days after treatment Cyperaceae [2]: 1 | Herbicidal activity 30 days after treatment Cyperaceae [2]: 1 | Herbicidal activity 15 days after treatment Gramineae [3]: 1 | Herbicidal activity 30 days after treatment Gramineae [3]: 1 | Herbicidal Activity Humulus scandens [4]: 1 | Post-emergence weed control effect, Barnyard grass [5]: 1 | Post-emergence weed control effect, Digitaria sanguinalis [6]: 2 (equivalent to 0 to 2.5% of the weed in the blank control area) | Post-emergence weed control effect, Amaranthus retroflexus [7]: 1 | Post-emergence weed control effect, Portulaca oleracea [8]: 1 | Post-emergence weed control effect, Green bristlegrass [9]: 1 | Post-emergence weed control effect, Convolvulus arvensis [10]: 1 | Post-emergence weed control effect, Nutgrass flatsedge [11]: 3 (equivalent to 2.6 to 5% of the weed in the blank control area) | Post-emergence weed control effect, Goose grass [12]: 2 (equivalent to 0 to 2.5% of the weed in the blank control area) | Post-emergence weed control effect, Solanum nigrum [13]: 2 (equivalent to 0 to 2.5% of the weed in the blank control area) | Post-emergence weed control effect, Acalypha australis [14]: 3 (equivalent to 2.6 to 5% of the weed in the blank control area) | Post-emergence weed control effect, Chenopodium album [15]: 1 | Herbicidal Activity Barnyard grass [16]: 1 | Herbicidal Activity Digitaria sanguinalis [17]: 1 | Herbicidal Activity Amaranthus retroflexus [18]: 1 | Herbicidal Activity Humulus scandens [19]: 1 | Herbicidal Activity Green bristlegrass [20]: 1 | Herbicidal Activity Piemarker [21]: 1 | Herbicidal Activity Digitaria sanguinalis [22]: 1 | Herbicidal Activity Amaranthus retroflexus [23]: 1 | Herbicidal Activity Barnyard grass [24]: 1 | Herbicidal Activity Green bristlegrass [25]: 1 | Herbicidal Activity Piemarker [26]: 1
